Measurements published in ChEMBL document CHEMBL5131519, “Conversion of a False Virtual Screen Hit into Selective JAK2 JH2 Domain Binders Using Convergent Design Strategies” (ACS Med Chem Lett, 2022).
pKd: −log10 of the molar value.

What was measured:
[1] = biological target: T1, Tyrosine-protein kinase JAK2 (Homo sapiens, UniProt O60674); experiment: Binding affinity to wild type JAK2 JH2 pseudokinase domain (unknown origin) expressed in Sf9 cells and measured upto 30 mins by competitive fluorescence polarization assay
T1 sequence (O60674 whole entry, the tested form may be a part): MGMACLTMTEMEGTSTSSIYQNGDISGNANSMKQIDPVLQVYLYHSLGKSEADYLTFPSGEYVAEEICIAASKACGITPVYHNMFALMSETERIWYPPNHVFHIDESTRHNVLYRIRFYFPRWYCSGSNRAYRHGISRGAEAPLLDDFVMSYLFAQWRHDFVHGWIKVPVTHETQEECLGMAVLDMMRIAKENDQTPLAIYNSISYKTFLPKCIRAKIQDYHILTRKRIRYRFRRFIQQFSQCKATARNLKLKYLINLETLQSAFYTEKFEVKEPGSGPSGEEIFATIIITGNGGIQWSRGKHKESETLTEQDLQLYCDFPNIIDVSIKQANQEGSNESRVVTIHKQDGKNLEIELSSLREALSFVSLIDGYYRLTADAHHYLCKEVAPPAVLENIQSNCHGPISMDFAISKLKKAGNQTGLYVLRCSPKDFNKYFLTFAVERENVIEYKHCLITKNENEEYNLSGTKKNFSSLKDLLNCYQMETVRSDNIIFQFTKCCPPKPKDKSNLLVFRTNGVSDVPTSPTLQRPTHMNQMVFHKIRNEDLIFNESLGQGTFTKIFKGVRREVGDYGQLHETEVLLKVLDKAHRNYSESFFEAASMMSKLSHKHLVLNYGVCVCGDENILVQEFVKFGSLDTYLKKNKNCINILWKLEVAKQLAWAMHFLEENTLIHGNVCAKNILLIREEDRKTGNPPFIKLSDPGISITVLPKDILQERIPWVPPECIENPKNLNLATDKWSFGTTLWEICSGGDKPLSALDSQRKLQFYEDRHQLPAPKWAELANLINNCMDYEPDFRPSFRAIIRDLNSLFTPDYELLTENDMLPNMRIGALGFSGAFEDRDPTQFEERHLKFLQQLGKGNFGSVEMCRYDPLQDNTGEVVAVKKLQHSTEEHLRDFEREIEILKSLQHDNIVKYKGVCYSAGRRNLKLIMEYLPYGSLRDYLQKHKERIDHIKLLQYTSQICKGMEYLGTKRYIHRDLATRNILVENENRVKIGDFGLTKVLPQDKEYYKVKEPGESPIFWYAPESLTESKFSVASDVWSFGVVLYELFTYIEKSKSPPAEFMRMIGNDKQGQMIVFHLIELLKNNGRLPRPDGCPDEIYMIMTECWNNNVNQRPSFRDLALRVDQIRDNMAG

in vitro = experiment: in vitro; parameters: dose or concentration left out as unconfirmed; conditions: PAMPA, pH 7.4
Description: Permeability of compound in PBS buffer at pH 7.4 at 500 mM incubated for 18 hrs by UV plate reader based PAMPA assay

[2] = biological target: T1, Tyrosine-protein kinase JAK2; experiment: Binding affinity to wild type JAK2 JH2 pseudokinase domain (unknown origin) expressed in Sf9 cells at 50 uM and measured upto 30 mins competitive fluorescence polarization assay
[3] = Binding affinity to wild type JAK2 JH1 catalytic domain (unknown origin) expressed in Sf9 cells and measured upto 30 mins by competitive fluorescence polarization assay; parameters: species or system Homo sapiens
[4] = biological target: Tyrosine-protein kinase JAK2 (Homo sapiens, UniProt O60674, V617F); experiment: Binding affinity to wild type JAK2 JH2 pseudokinase domain (unknown origin) V617F mutant expressed in Sf9 cells and measured upto 30 mins by competitive fluorescence polarization assay
Tyrosine-protein kinase JAK2 (Homo sapiens, UniProt O60674, V617F), sequence (O60674 whole entry V617F, the tested form may be a part): as the sequence (O60674 whole entry, the tested form may be a part) above, with V617F counted along it

Row | Structure (SMILES) | pKd [1] | Activity [2] [%] | other results
1 | Nc1nc(Oc2ccc(NC(=O)CCC(=O)O)cc2)c2cc[nH]c2n1 | 4.73 | – | –
2 | O=C(N[C@H](CO)[C@H](O)c1ccc([N+](=O)[O-])cc1)C(Cl)Cl [CHLORAMPHENICOL] | – | – | Papp at 18 h (in vitro): 4.53 ×10⁻⁶ cm/s
3 | Nc1nc(Oc2ccc(NS(=O)(=O)CCC(=O)O)cc2)c2cc[nH]c2n1 | – | 18 | –
4 | Nc1nc(-c2ccc(S(=O)(=O)CCC(=O)O)cc2)c2cc[nH]c2n1 | – | 4 | –
5 | Nc1nc(Oc2ccc(NC(=O)CCCC(=O)O)cc2)c2cc[nH]c2n1 | – | 27 | –

Second part, led by results:

Row | pKd [1] | Activity [2] [%] | Structure (SMILES) | other results
6 | 6.23 | – | Nc1nc(Oc2ccc(NC(=O)N[C@@H](COCc3ccccc3)C(=O)O)cc2)c2cc[nH]c2n1 | –
7 | 5.65 | – | Nc1nc(Oc2ccc(NC(=O)N[C@@H](Cc3ccccc3)C(=O)O)cc2)c2cc[nH]c2n1 | –
8 | – | 30 | Nc1nc(Oc2ccc(NC(=O)NCCC(=O)O)cc2)c2cc[nH]c2n1 | –
9 | – | 46 | Nc1nc(Oc2ccc(NC(=O)N[C@H](CCc3ccccc3)C(=O)O)cc2)c2cc[nH]c2n1 | –
10 | 6.49 | – | Nc1nc(Oc2ccc(NC(=O)N[C@@H](CCc3ccccc3)C(=O)O)cc2)c2cc[nH]c2n1 | pKd [3]: 4.44; pKd [4]: 6.75
11 | 5.00 | – | Nc1nc(Oc2ccc(NC(=O)N[C@H](Cc3ccccc3)C(=O)O)cc2)c2cc[nH]c2n1 | –
12 | 6.23 | – | Nc1nc(Oc2ccc(NC(=O)N[C@@H](CCCc3ccccc3)C(=O)O)cc2)c2cc[nH]c2n1 | –
